Measurements published in ChEMBL document CHEMBL6096652, “Design, synthesis and anti-tumor evaluation of novel pyrimidine and quinazoline analogues” (Eur J Med Chem, 2025).
Active and inactive are the calls of the source. The rule behind the calls is not given here.

Legend:
B16-F10 [1] = assay: Antiproliferative activity against mouse B16-F10 cells incubated for 48 hrs by MTT assay; format: functional, cell-based; settings: B16-F10, 48 h
A549 = assay: Antiproliferative activity against human A549 cells incubated for 48 hrs by MTT assay; format: functional, cell-based; settings: A549, 48 h
HepG2 = assay: Antiproliferative activity against human HepG2 cells incubated for 48 hrs by MTT assay; format: functional, cell-based; settings: HepG2, 48 h
MCF7 = assay: Antiproliferative activity against human MCF7 cells incubated for 48 hrs by MTT assay; format: functional, cell-based; settings: MCF7, 48 h
Tubulin (Homo sapiens) [2] = biological target: T1, Tubulin (Homo sapiens) (UniProt P68371+Q9H4B7+P0DPH7+P68366+Q13509+Q71U36+P04350+Q3ZCM7+P07437+P68363+Q9BQE3+Q6PEY2+Q13885+Q9BVA1+Q9BUF5); assay: (§1) Inhibition of tubulin polymerization (unknown origin) measured upto 20 mins by absorbance based assay; format: protein-complex assay
Tubulin = assay: as §1; format: protein-complex assay, Homo sapiens
Tubulin (Homo sapiens) [3] = biological target: T1, Tubulin (Homo sapiens); assay: Disruption of microtubule polymerization in human HepG2 cells at 100 nM incubated for 12 hrs by immunofluorescence based analysis; format: cell-based
B16-F10 [4] = assay: Induction of cell cycle arrest in mouse B16-F10 cells assessed as accumulation at G1 phase at 50 nM incubated for 24 hrs by flow cytometry (reference value: 57.91 %); format: functional
B16-F10 [5] = assay: Induction of cell cycle arrest in mouse B16-F10 cells assessed as accumulation at S phase at 50 nM incubated for 24 hrs by flow cytometry (reference value: 37.84 %); format: functional
B16-F10 [6] = assay: Induction of cell cycle arrest in mouse B16-F10 cells assessed as accumulation at G2/M phase at 50 nM incubated for 24 hrs by flow cytometry (reference value: 4.25 %); format: functional
B16-F10 [7] = assay: Induction of cell cycle arrest in mouse B16-F10 cells assessed as accumulation at G1 phase at 100 nM incubated for 24 hrs by flow cytometry (reference value: 57.91 %); format: functional
B16-F10 [8] = assay: Induction of cell cycle arrest in mouse B16-F10 cells assessed as accumulation at S phase at 100 nM incubated for 24 hrs by flow cytometry (reference value: 37.84 %); format: functional
B16-F10 [9] = assay: Induction of cell cycle arrest in mouse B16-F10 cells assessed as accumulation at G2/M phase at 100 nM incubated for 24 hrs by flow cytometry (reference value: 4.25 %); format: functional
B16-F10 [10] = assay: Induction of cell cycle arrest in mouse B16-F10 cells assessed as accumulation at G1 phase at 200 nM incubated for 24 hrs by flow cytometry (reference value: 57.91 %); format: functional
B16-F10 [11] = assay: Induction of cell cycle arrest in mouse B16-F10 cells assessed as accumulation at S phase at 200 nM incubated for 24 hrs by flow cytometry (reference value: 37.84 %); format: functional
B16-F10 [12] = assay: Induction of cell cycle arrest in mouse B16-F10 cells assessed as accumulation at G2/M phase at 200 nM incubated for 24 hrs by flow cytometry (reference value: 4.25 %); format: functional
B16-F10 [13] = assay: Induction of cell cycle arrest in mouse B16-F10 cells assessed as accumulation at G2/M phase incubated for 24 hrs by flow cytometry; format: functional, cell-based
B16-F10 [14] = assay: Induction of apoptosis in mouse B16-F10 cells assessed as viable cells at 50 nM incubated for 24 hrs by Annexin V-PE/7-AAD staining based flow cytometry (reference value: 94.5 %); format: functional; settings: read-out: Activity
B16-F10 [15] = assay: Induction of apoptosis in mouse B16-F10 cells assessed as early apoptotic cells at 50 nM incubated for 24 hrs by Annexin V-PE/7-AAD staining based flow cytometry (reference value: 1.04 %); format: functional
B16-F10 [16] = assay: Induction of apoptosis in mouse B16-F10 cells assessed as late apoptotic cells at 50 nM incubated for 24 hrs by Annexin V-PE/7-AAD staining based flow cytometry (reference value: 4.13 %); format: functional
B16-F10 [17] = assay: Induction of apoptosis in mouse B16-F10 cells assessed as necrotic cells at 50 nM incubated for 24 hrs by Annexin V-PE/7-AAD staining based flow cytometry (reference value: 0.33 %); format: functional
B16-F10 [18] = assay: Induction of apoptosis in mouse B16-F10 cells assessed as total apoptotic cells at 50 nM incubated for 24 hrs by Annexin V-PE/7-AAD staining based flow cytometry (reference value: 5.17 %); format: functional
B16-F10 [19] = assay: Induction of apoptosis in mouse B16-F10 cells assessed as viable cells at 100 nM incubated for 24 hrs by Annexin V-PE/7-AAD staining based flow cytometry (reference value: 94.5 %); format: functional; settings: read-out: Activity
B16-F10 [20] = assay: Induction of apoptosis in mouse B16-F10 cells assessed as early apoptotic cells at 100 nM incubated for 24 hrs by Annexin V-PE/7-AAD staining based flow cytometry (reference value: 1.04 %); format: functional
B16-F10 [21] = assay: Induction of apoptosis in mouse B16-F10 cells assessed as late apoptotic cells at 100 nM incubated for 24 hrs by Annexin V-PE/7-AAD staining based flow cytometry (reference value: 4.13 %); format: functional
B16-F10 [22] = assay: Induction of apoptosis in mouse B16-F10 cells assessed as necrotic cells at 100 nM incubated for 24 hrs by Annexin V-PE/7-AAD staining based flow cytometry (reference value: 0.33 %); format: functional
B16-F10 [23] = assay: Induction of apoptosis in mouse B16-F10 cells assessed as total apoptotic cells at 100 nM incubated for 24 hrs by Annexin V-PE/7-AAD staining based flow cytometry (reference value: 5.17 %); format: functional
B16-F10 [24] = assay: Induction of apoptosis in mouse B16-F10 cells assessed as viable cells at 200 nM incubated for 24 hrs by Annexin V-PE/7-AAD staining based flow cytometry (reference value: 94.5 %); format: functional; settings: read-out: Activity
B16-F10 [25] = assay: Induction of apoptosis in mouse B16-F10 cells assessed as early apoptotic cells at 200 nM incubated for 24 hrs by Annexin V-PE/7-AAD staining based flow cytometry (reference value: 1.04 %); format: functional
B16-F10 [26] = assay: Induction of apoptosis in mouse B16-F10 cells assessed as late apoptotic cells at 200 nM incubated for 24 hrs by Annexin V-PE/7-AAD staining based flow cytometry (reference value: 4.13 %); format: functional
B16-F10 [27] = assay: Induction of apoptosis in mouse B16-F10 cells assessed as necrotic cells at 200 nM incubated for 24 hrs by Annexin V-PE/7-AAD staining based flow cytometry (reference value: 0.33 %); format: functional
B16-F10 [28] = assay: Induction of apoptosis in mouse B16-F10 cells assessed as total apoptotic cells at 200 nM incubated for 24 hrs by Annexin V-PE/7-AAD staining based flow cytometry (reference value: 5.17 %); format: functional
B16-F10 [29] = assay: Inhibition of cell migration in mouse B16-F10 cells assessed as recovery of scratch area at 50 nM incubated for 24 hrs by wound healing assay (reference value: 72.97 %); format: functional; parameters: scale not given: the % may be the effect or the level left
B16-F10 [30] = assay: Inhibition of cell migration in mouse B16-F10 cells assessed as recovery of scratch area at 100 nM incubated for 24 hrs by wound healing assay (reference value: 72.97 %); format: functional; parameters: scale not given: the % may be the effect or the level left
B16-F10 [31] = assay: Inhibition of cell migration in mouse B16-F10 cells assessed as recovery of scratch area at 200 nM incubated for 24 hrs by wound healing assay (reference value: 72.97 %); format: functional; parameters: scale not given: the % may be the effect or the level left
B16-F10 [32] = assay: Antitumor activity against mouse B16-F10 cells implanted in C57BL/6 mouse assessed as reduction in tumor volume at 15 mg/kg measured after 10 days; format: functional, organism-based; settings: time 10.0 day
B16-F10 [33] = assay: Antitumor activity against mouse B16-F10 cells implanted in C57BL/6 mouse at 15 mg/kg measured after 10 days relative to control; format: functional; settings: B16-F10, 240 h, time 10 day, read-out: TGI
B16-F10 [34] = assay: Antitumor activity against mouse B16-F10 cells implanted in C57BL/6 mouse at 30 mg/kg measured after 10 days relative to control; format: functional; settings: B16-F10, 240 h, time 10 day, read-out: TGI
[35] = Toxicity in C57BL/6 mouse implanted with mouse B16-F10 cells assessed as body weight change at 15 to 30 mg/kg measured after 10 days; format: organism-based; settings: in vivo, 240 h, dose 15-30 mg/kg, time 10 day
[36] = Toxicity in C57BL/6 mouse implanted with mouse B16-F10 cells assessed as adverse effects at 15 to 30 mg/kg measured after 10 days; format: organism-based; settings: in vivo, 240 h, dose 15-30 mg/kg, time 10 day

## COc1cc(Nc2ccnc(-c3cccc4c3ccn4C)n2)cc(OC)c1OC
B16-F10 [1]
  IC50: 98 nM
A549
  IC50: 135 nM
HepG2
  IC50: 109 nM
MCF7
  IC50: 259 nM
Tubulin (Homo sapiens) [2]
  inhibition: Dose-dependent-effect
Tubulin
  IC50: 22.2 µM
Tubulin (Homo sapiens) [3]
  Activity: Active
B16-F10 [4]
  Activity: 51.86%
B16-F10 [5]
  Activity: 32.53%
B16-F10 [6]
  Activity: 15.61%
B16-F10 [7]
  Activity: 11.76%
B16-F10 [8]
  Activity: 23.18%
B16-F10 [9]
  Activity: 65.06%
B16-F10 [10]
  Activity: 5.91%
B16-F10 [11]
  Activity: 11.67%
B16-F10 [12]
  Activity: 82.41%
B16-F10 [13]
  Activity: Dose-dependent-effect
B16-F10 [14]
  viability at 0.05 µM: 88.3%
B16-F10 [15]
  Activity: 1.71%
B16-F10 [16]
  Activity: 8.25%
B16-F10 [17]
  Activity: 1.7%
B16-F10 [18]
  Activity: 9.96%
B16-F10 [19]
  viability at 0.1 µM: 86%
B16-F10 [20]
  Activity: 3.58%
B16-F10 [21]
  Activity: 9.91%
B16-F10 [22]
  Activity: 0.52%
B16-F10 [23]
  Activity: 13.49%
B16-F10 [24]
  viability at 0.2 µM: 77.4%
B16-F10 [25]
  Activity: 3.4%
B16-F10 [26]
  Activity: 18.8%
B16-F10 [27]
  Activity: 0.36%
B16-F10 [28]
  Activity: 22.2%
B16-F10 [29]
  Activity: 69.89%
B16-F10 [30]
  Activity: 37.37%
B16-F10 [31]
  Activity: 22.38%
B16-F10 [32]
  Activity: Active
B16-F10 [33]
  inhibition in vivo at 15 mg/kg: 57.9%
B16-F10 [34]
  inhibition in vivo at 30 mg/kg: 79.6%
[35]
  Activity: Non-toxic
[36]
  Activity: Non-toxic
